What was measured:
[1] = Kit225 T Cell Assay, IL-23-stimulated STAT-dependent luciferase reporter; type: cell-based; conditions: Kit225 T cells, 20 ng/mL human recombinant IL-23, 5-6 hours, luciferase expression
Protocol: (§1) Kit225 T cells with a stably-integrated STAT-dependent luciferase reporter were plated in RPMI (Gibco) containing 10% heat-inactivated FBS (Gibco) and 100 U/mL PenStrep (Gibco). The cells were then stimulated with either 20 ng/mL human recombinant IL-23 or 200 U/mL human recombinant IFNα (PBL InterferonSource) for 5-6 hours. Luciferase expression was measured using the STEADY-GLO® Luciferase Assay System (Promega) according to the manufacturer's instructions. Inhibition data were calculated by comparison to no inhibitor control wells for 0% inhibition and non-stimulated control wells for 100% inhibition. Dose response curves were generated to determine the concentration required to inhibit 50% of cellular response (IC50) as derived by non-linear regression analysis.

[2] = system: IFNα Kit225 Reporter (Kit225 T cells with a stably-integrated STAT-dependent luciferase reporter, stimulated with IFNα); experiment: Kit225 T Cell Assay, IFNα-stimulated STAT-dependent luciferase reporter; type: cell-based; conditions: 200 U/mL human recombinant IFNα, 5-6 hours, luciferase expression
Protocol: as §1

| SMILES | IC50 [1] | IC50 [2] |
| --- | --- | --- |
| N#Cc1cnc2c(Nc3ccc(C(=O)N4CCCC4)c(OCC(F)(F)F)n3)cc(N[C@@H]3CCCC[C@H]3O)nn12 [Example 4, 6-{[(1R,2R)-2-hydroxycyclohexyl]amino}-8-{[5-(pyrrolidine-1-carbonyl)-6-(2,2,2-trifluoroethoxy)pyridin-2-yl]amino}imidazo[1,2-b]pyridazine-3-carbonitrile] | 0.46 µM | 0.52 µM |
| CC(C)(C)Oc1nc(Nc2cc(N[C@H]3CCCC[C@@H]3O)nn3c(C#N)cnc23)ccc1C(=O)N1CCCC1 [Example 5, 8-{[6-(tert-butoxy)-5-(pyrrolidine-1-carbonyl)pyridin-2-yl]amino}-6-{[(1S,2S)-2-hydroxycyclohexyl]amino}imidazo[1,2-b]pyridazine-3-carbonitrile] | 1.13 µM | 1.3 µM |
| CC(C)(C)N1CCN(c2cccc(Nc3cc(N[C@@H]4CCCC[C@H]4O)nn4c(C#N)cnc34)n2)C1=O [Example 6, 8-{[6-(3-tert-butyl-2-oxoimidazolidin-1-yl)pyridin-2-yl]amino}-6-{[(1R,2R)-2-hydroxycyclohexyl]amino}imidazo[1,2-b]pyridazine-3-carbonitrile] | 0.58 µM | 0.45 µM |
| CC(C)(C)C(=O)Nc1cccc(Nc2cc(N[C@@H]3CCCC[C@H]3O)nn3c(C#N)cnc23)n1 [Example 7, N-{6-[(3-cyano-6-{[(1R,2R)-2-hydroxycyclohexyl]amino}imidazo[1,2-b]pyridazin-8-yl)amino]pyridin-2-yl}-2,2-dimethylpropanamide] | 0.61 µM | 0.81 µM |
| CC1(C(=O)Nc2cccc(Nc3cc(N[C@@H]4CCCC[C@H]4O)nn4c(C#N)cnc34)n2)CC1 [Example 8, N-{6-[(3-cyano-6-{[(1R,2R)-2-hydroxycyclohexyl]amino}imidazo[1,2-b]pyridazin-8-yl)amino]pyridin-2-yl}-1-methylcyclopropane-1-carboxamide] | 0.49 µM | 0.28 µM |
| CC1(C)CCCN1C(=O)c1ccc(Nc2cc(N[C@H]3CCCC[C@@H]3O)nn3c(C#N)cnc23)nc1 [Example 11, 8-{[5-(2,2-dimethylpyrrolidine-1-carbonyl)pyridin-2-yl]amino}-6-{[(1S,2S)-2-hydroxycyclohexyl]amino}imidazo[1,2-b]pyridazine-3-carbonitrile] | 0.56 µM | 0.36 µM |
| CC(C)(C)Oc1nc(Nc2cc(N[C@@H]3CCCC[C@H]3O)nn3c(C#N)cnc23)ccc1C(=O)N1CCCC1 [Example 12, 8-{[6-(tert-butoxy)-5-(pyrrolidine-1-carbonyl)pyridin-2-yl]amino}-6-{[(1R,2R)-2-hydroxycyclohexyl]amino}imidazo[1,2-b]pyridazine-3-carbonitrile] | 2.73 µM | 0.38 µM |
| N#Cc1cnc2c(Nc3ccc(C(=O)N4CCCC4)c(OCC(F)F)n3)cc(N[C@H]3CCCC[C@@H]3O)nn12 [Example 13, 8-{[6-(2,2-difluoroethoxy)-5-(pyrrolidine-1-carbonyl)pyridin-2-yl]amino}-6-{[(1S,2S)-2-hydroxycyclohexyl]amino}imidazo[1,2-b]pyridazine-3-carbonitrile] | 0.45 µM | 0.64 µM |
| N#Cc1cnc2c(Nc3ccc(C(=O)N4CCCC4)c(N4CCCC4)n3)cc(N[C@H]3CCCC[C@@H]3O)nn12 [Example 14, 6-{[(1S,2S)-2-hydroxycyclohexyl]amino}-8-{[6-(pyrrolidin-1-yl)-5-(pyrrolidine-1-carbonyl)pyridin-2-yl]amino}imidazo[1,2-b]pyridazine-3-carbonitrile] | 0.66 µM | 0.49 µM |
| N#Cc1cnc2c(Nc3ccc(C(=O)N4CCCC4)c(N4CC(F)C4)n3)cc(N[C@H]3CCCC[C@@H]3O)nn12 [Example 15, 8-{[6-(3-fluoroazetidin-1-yl)-5-(pyrrolidine-1-carbonyl)pyridin-2-yl]amino}-6-{[(1S,2S)-2-hydroxycyclohexyl]amino}imidazo[1,2-b]pyridazine-3-carbonitrile] | 0.65 µM | 0.82 µM |
| N#Cc1cnc2c(Nc3ccc4c(C(F)(F)F)cc(C(F)(F)F)nc4n3)cc(NC34CC5CC(O)(CC(O)(C5)C3)C4)nn12 [Example 19, 8-{[5,7-bis(trifluoromethyl)-1,8-naphthyridin-2-yl]amino}-6-[(3,5-dihydroxyadamantan-1-yl)amino]imidazo[1,2-b]pyridazine-3-carbonitrile] | 0.59 µM | 0.81 µM |
| N#Cc1cnc2c(Nc3cccc(C(F)(F)F)n3)cc(NC34CC5CC(O)(CC(O)(C5)C3)C4)nn12 [Example 20, 6-[(3,5-dihydroxyadamantan-1-yl)amino]-8-{[6-(trifluoromethyl)pyridin-2-yl]amino}imidazo[1,2-b]pyridazine-3-carbonitrile] | 0.44 µM | 0.15 µM |
| N#Cc1cnc2c(Nc3ccc(C(=O)N4CCCC4)cn3)cc(NC3CCOCC3)nn12 [Example 23, 6-[(oxan-4-yl)amino]-8-{[5-(pyrrolidine-1-carbonyl)pyridin-2-yl]amino}imidazo[1,2-b]pyridazine-3-carbonitrile] | 0.47 µM | 0.34 µM |
| CC(C)(C)Oc1nc(Nc2cc(NC3CCOCC3)nn3c(C#N)cnc23)ccc1C(=O)N1CCCC1 [Example 24, 8-{[6-(tert-butoxy)-5-(pyrrolidine-1-carbonyl)pyridin-2-yl]amino}-6-[(oxan-4-yl)amino]imidazo[1,2-b]pyridazine-3-carbonitrile] | 0.7 µM | 0.6 µM |

Further compounds by falling IC50 [1], results first:

| IC50 [1] | IC50 [2] | SMILES |
| --- | --- | --- |
| 0.43 µM | 0.76 µM | COc1ccc(Nc2cc(NC34CC5CC(O)(CC(O)(C5)C3)C4)nn3c(C#N)cnc23)nc1NC(=O)C(C)(C)C [Example 21, N-[6-({3-cyano-6-[(3,5-dihydroxyadamantan-1-yl)amino]imidazo[1,2-b]pyridazin-8-yl}amino)-3-methoxypyridin-2-yl]-2,2-dimethylpropanamide] |
| 0.42 µM | 0.49 µM | CC(C)(C)NC(=O)c1cccc(Nc2cc(NC34CC5CC(CC(O)(C5)C3)C4)nn3c(C#N)cnc23)n1 [Example 17, N-tert-butyl-6-({3-cyano-6-[(3-hydroxyadamantan-1-yl)amino]imidazo[1,2-b]pyridazin-8-yl}amino)pyridine-2-carboxamide] |
| 0.36 µM | 0.85 µM | COc1cccc2ccc(Nc3cc(NC45CC6CC(O)(CC(F)(C6)C4)C5)nn4c(C#N)cnc34)nc12 (centres unmarked) [Example 22, 6-[(3-fluoro-5-hydroxyadamantan-1-yl)amino]-8-[(8-methoxyquinolin-2-yl)amino]imidazo[1,2-b]pyridazine-3-carbonitrile] |
| 0.34 µM | 0.45 µM | CC(C)(O)C(=O)Nc1cccc(Nc2cc(NC3CCOCC3)nn3c(C#N)cnc23)n1 [Example 25, N-[6-({3-cyano-6-[(oxan-4-yl)amino]imidazo[1,2-b]pyridazin-8-yl}amino)pyridin-2-yl]-2-hydroxy-2-methylpropanamide] |
| 0.28 µM | 0.69 µM | N#Cc1cnc2c(Nc3ccc(C(=O)N4CCCC4)c(N4CCCC4)n3)cc(N[C@@H]3CCCC[C@H]3O)nn12 [Example 2, 6-{[(1R,2R)-2-hydroxycyclohexyl]amino}-8-{[6-(pyrrolidin-1-yl)-5-(pyrrolidine-1-carbonyl)pyridin-2-yl]amino}imidazo[1,2-b]pyridazine-3-carbonitrile] |
| 0.24 µM | 0.83 µM | CC(C)Oc1nc(Nc2cc(N[C@@H]3CCCC[C@H]3O)nn3c(C#N)cnc23)ccc1C(=O)N1CCCC1 [Example 1, 6-{[(1R,2R)-2-hydroxycyclohexyl]amino}-8-{[6-(propan-2-yloxy)-5-(pyrrolidine-1-carbonyl)pyridin-2-yl]amino}imidazo[1,2-b]pyridazine-3-carbonitrile] |
| 0.22 µM | 0.39 µM | CC(C)(O)C(=O)Nc1cccc(Nc2cc(N[C@@H]3CCCC[C@H]3O)nn3c(C#N)cnc23)n1 [Example 9, N-{6-[(3-cyano-6-{[(1R,2R)-2-hydroxycyclohexyl]amino}imidazo[1,2-b]pyridazin-8-yl)amino]pyridin-2-yl}-2-hydroxy-2-methylpropanamide] |
| 0.19 µM | 0.46 µM | COc1cccc2ccc(Nc3cc(NC45CC6CC(CC(O)(C6)C4)C5)nn4c(C#N)cnc34)nc12 [Example 18, 6-[(3-hydroxyadamantan-1-yl)amino]-8-[(8-methoxyquinolin-2-yl)amino]imidazo[1,2-b]pyridazine-3-carbonitrile] |
| 0.15 µM | 0.27 µM | N#Cc1cnc2c(Nc3cccc(NC(=O)c4ccccc4)n3)cc(N[C@@H]3CCCC[C@H]3O)nn12 [Example 10, N-{6-[(3-cyano-6-{[(1R,2R)-2-hydroxycyclohexyl]amino}imidazo[1,2-b]pyridazin-8-yl)amino]pyridin-2-yl}benzamide] |
| 0.14 µM | 0.19 µM | CN(C)c1nc(Nc2cc(N[C@@H]3CCCC[C@H]3O)nn3c(C#N)cnc23)ccc1C(=O)N1CCCC1 [Example 3, 8-{[6-(dimethylamino)-5-(pyrrolidine-1-carbonyl)pyridin-2-yl]amino}-6-{[(1R,2R)-2-hydroxycyclohexyl]amino}imidazo[1,2-b]pyridazine-3-carbonitrile] |
| 0.09 µM | 0.13 µM | CC1(C)CCCN1C(=O)c1ccc(Nc2cc(N[C@@H]3CCCC[C@H]3O)nn3c(C#N)cnc23)nc1 [Example 16, 8-{[5-(2,2-dimethylpyrrolidine-1-carbonyl)pyridin-2-yl]amino}-6-{[(1R,2R)-2-hydroxycyclohexyl]amino}imidazo[1,2-b]pyridazine-3-carbonitrile] |
